Reference: patent US20050004084A1, “Aspirin-containing trasdermal pharmaceutical composition for the treatment of calcification” (priority 2001, published 2005)

Columns and labels:
[1] = Examination of the metabolism of acetylsalicylic acid: ASA and SA in plasma by HPLC after gel applied onto skin; format: in vivo, New Zealand giant white rabbits; conditions: for concentration at 0 h / concentration at 0.25 h / concentration at 0.5 h / concentration at 0.75 h / concentration at 0.75 hour / concentration at 1 h / concentration at 1.5 h / concentration at 2 h / concentration at 3 h / concentration at 4 h: pH 6.5, Salicylic acid and acetysalicylic acid contents of blood samples
Experimental: The tests were performed on 6 week old male New Zealand giant white rabbits. […] The hair was shaved off from the backs of the rabbits, and 0.6 g of a gel with the following composition was applied onto the skin:
Blood samples were taken periodically as indicated in Table 1 from the jugular veins of the animals, the samples were centrifuged to separate the plasma, and the acetylsalicylic acid (ASA) and salicylic acid (SA) contents of the samples were measured by HPLC. The centrifuged plasma was stored at −22° C. until the time of analysis in order to avoid any ex vivo metabolism due to the presence of esterases in the plasma.
The above test was repeated on the same animals with the difference that 0.01 g of sodium carbonate was also added to the gel and the gel was buffered to pH 6.5.

[2] = Urine analyses on rabbits kept on specific calcium-rich diet; format: in vivo
Experimental: From the data of Table 2 it appears that the amount of acetylsalicylic acid present in the blood of the animals stabilized after a short induction period. […] This test was performed on healthy animals, where no dissolution of calcification and no formation of calcium acetylsalicylate due to the dissolution took place.

[3] = male, New Zealand giant white, rabbit, in vivo
[4] = male, New Zealand giant white, rabbit, in vivo, 0 h, pH 6.5
[5] = male, New Zealand giant white, rabbit, in vivo, 0.75 h, pH 6.5
[6] = male, New Zealand giant white, rabbit, in vivo, 0.75 hour, pH 6.5
[7] = male, New Zealand giant white, rabbit, in vivo, Salicylic acid and acetysalicylic acid contents of blood samples

For `CC(=O)Oc1ccccc1C(=O)O` [ASA, acetylsalicylic acid], the “time within which acetylsalicylic acid metabolizes in the body to salicylic acid and acetic acid” value [1, 3] was at most 15 min, the “Salicylic acid and acetysalicylic acid contents of blood samples” value [1, 4] was 0 μg/ml of plasma and the “Salicylic acid and acetysalicylic acid contents of blood samples” value ([1]; male, New Zealand giant white, rabbit, in vivo, 0 hours) was 0 μg/ml of plasma. The “Salicylic acid and acetysalicylic acid contents of blood samples” value [1, 5] was 9.68 μg/ml of plasma, the “Salicylic acid and acetysalicylic acid contents of blood samples” value [1, 6] was 8.84 μg/ml of plasma and the “Salicylic acid and acetysalicylic acid contents of blood samples” value ([1]; male, New Zealand giant white, rabbit, in vivo, 1.75 hours) was 0.136 μg/ml of plasma. The “acetylsalicylic acid remained un-metabolized” value ([1]; male, New Zealand giant white, rabbit, in vivo, 4 h, pH 6.5) was 25%, the concentration at 0 hours [1, 7] was 0 ng/mL and the concentration at 0.75 hours [1, 7] was 115 ng/mL. For the same molecule, the concentration at 1 hours [1, 7] was 98 ng/mL, the concentration at 1.75 hours [1, 7] was 76 ng/mL and the concentration at 2 hours [1, 7] was 163 ng/mL. The concentration at 0 h [1, 3] was 0 ng/mL, the concentration at 0.25 h [1, 3] was 570 ng/mL and the concentration at 0.5 h [1, 3] was 5240 ng/mL. The concentration at 0.75 h [1, 3] was 9440 ng/mL, the concentration at 0.75 hour [1, 3] was 7900 ng/mL and the concentration at 1 h [1, 3] was 7700 ng/mL. For the same molecule, the concentration at 1.5 h [1, 3] was 7120 ng/mL, the concentration at 2 h [1, 3] was 6980 ng/mL and the concentration at 3 h [1, 3] was 5650 ng/mL. The concentration at 4 h [1, 3] was 4550 ng/mL, the “Salicylic acid and acetysalicylic acid contents of blood samples” value ([1]; rabbit, in vivo) was “BLD” and the “metabolism of acetylsalicylic acid (observation)” value ([1]; rabbit, in vivo, pH 6.5) was “extreme slow down in the metabolism”. The “start of metabolism of acetylsalicylic acid” value ([1]; rabbit, in vivo, pH 6.5) was “third-fourth hour”.

For `O=C(O)c1ccccc1O` [SA, salicylic acid], the “Salicylic acid and acetysalicylic acid contents of blood samples” value ([1]; Rabbit 1, 0 hours, 0.6 g gel without carbonate on skin) was “BLD”, the “Salicylic acid and acetysalicylic acid contents of blood samples” value ([1]; Rabbit 2, 0 hours, 0.6 g gel without carbonate on skin) was “BLD” and the “Salicylic acid and acetysalicylic acid contents of blood samples” value ([1]; Rabbit 3, 0 hours, 0.6 g gel without carbonate on skin) was “BLD”. The “Salicylic acid and acetysalicylic acid contents of blood samples” value ([1]; Rabbit 4, 0 hours, 0.6 g gel without carbonate on skin) was “BLD”, the “salicylic acid content of the blood samples relative to the acetylsalicylic acid content” value ([1]; gel without carbonate, Table 1) was “at least one hundredfold” and the “Salicylic acid and acetysalicylic acid contents of blood samples” value [1, 4] was 0 μg/ml of plasma. The “Salicylic acid and acetysalicylic acid contents of blood samples” value [1, 5] was 2.54 μg/ml of plasma, the “Salicylic acid and acetysalicylic acid contents of blood samples” value [1, 6] was 1.97 μg/ml of plasma and the concentration at 0.75 hours [1, 7] was 40800 ng/mL. The concentration at 0 h [1, 3] was 0 ng/mL, the concentration at 0.25 h [1, 3] was 900 ng/mL and the concentration at 0.5 h [1, 3] was 980 ng/mL. It also gave a concentration at 0.75 h [1, 3] of 2810 ng/mL, a concentration at 0.75 hour [1, 3] of 2100 ng/mL and a concentration at 1 h [1, 3] of 3020 ng/mL. For the same molecule, the concentration at 1.5 h [1, 3] was 2690 ng/mL, the concentration at 2 h [1, 3] was 3110 ng/mL and the concentration at 3 h [1, 3] was 7980 ng/mL. For the same molecule, the concentration at 4 h [1, 3] was 12200 ng/mL.

For calcium acetylsalicylate, the “excretion / further metabolism” value [2] was “can no longer be metabolized but is excreted from the organism in unchanged form”.
